{"source": "patent US20200171056A1", "about": "“SULFONYLUREA COMPOUNDS IN THE TREATMENT OF DISEASE ASSOCIATED WITH UV-INDUCED DAMAGE” (CeMM - Forschungszentrum für Molekulare Medizin GmbH, priority 2017, published 2020)", "format_in_all_cases": "cell-based, human", "key": {"[1]": {"tested_on": "XPA^Δ/Δ patient-derived cells", "assay": "Colony formation of XPA patient-derived fibroblasts after UV irradiation", "settings": "0.5 mM acetohexamide for 6 hours, then UV; 10 days (FIG. 2B)", "procedure": "A. Dose-response curve of WT and ΔXPA cells treated with or without 0.5 mM acetohexamide for 6 hours, followed by illudin S treatment. Survival was assessed after 3 days using CellTiter-Glo. B. Colony formation of WT fibroblasts (BJ) and XPA-patient derived fibroblasts (XPA^Δ/Δ) treated with or without 0.5 mM acetohexamide for 6 hours, followed by UV irradiation (as indicated) and then kept in culture for 10 days. C. WT BJ and XPA^Δ/Δ fibroblastoid cells were treated with 0.5 mM acetohexamide for 6 hours, irradiated with 15 J/M^2 and then fixed and immunostained with an anti-cyclobutane pyrimidine dimer (CPD) antibody at the indicated times. Nuclear DNA was counterstained with DAPI. Scale bar, 10 μm. D. Scatter plot displaying the quantification of CPD intensities per nucleus of WT and XPA^Δ/Δ cells in the presence or absence of 0.5 mM acetohexamide, of more than 100 cells. Red lines within each column represent median intensities. A.u.=arbitrary unit.\nHAP1 cells were cultured in Iscove's Modified Dulbecco's Medium (Gibco). […]\n(§1) Cells were treated with UV at different doses with or without drug pre-treatment and then seeded into 6-well plates, at a density of 1,000 cells/well, in duplicates for 2 weeks until visible colonies were formed. […] Next, the staining solution was removed and the wells were washed, imaged and quantified using CellProfiler."}, "[2]": {"tested_on": "XPA-deficient HAP1 cells (ΔXPA)", "assay": "High-throughput drug screen for agents that alleviate UV sensitivity of NER-deficient cells", "settings": "drug at five times maximal plasma concentration for 24 hours, then UV; viability after 3 days", "from_the_text": "An in-house drug library of around 300 compounds representing all structurally distinct Food and Drug Administration (FDA) approved compounds was used to allow for potential drug repurposing. First, an NER-deficient cell line was generated by making a frameshift mutation in XPA, one of the central components of NER that functions in both TC-NER and GG-NER, utilizing CRISPR-Cas9 in the human near haploid cell line HAP1 (denoted ΔXPA) (FIG. 5A). […] Next, ΔXPA and wildtype cells were exposed to the drug library (with each drug used at five times maximal plasma concentration) for 24 hours, followed by UV exposure (at a dose selected to kill ΔXPA cells but not wildtype cells) (FIGS. 1A and 5D). The compounds were scored based on their efficiency to improve cellular survival of ΔXPA cells, compared to wildtype cells (FIG. 1B). […]\nFifty nL of compound per well was transferred into 384-well plates (Corning 3712) from DMSO stock plates using acoustic transfer (Labcyte Echo 520). […] Three days later cell viability was determined using Cell Titer-Glo (Promega). […] For data analysis, the percentage of control was calculated and the signal of the DMSO irradiated sample was used to set values to 0% while the DMSO non-irradiated sample was used to set the values to 100%. […]"}, "[3]": {"tested_on": "ΔXPA-MUTYH HAP1 cells", "assay": "Colony formation of double knockout after UV irradiation", "settings": "0.5 mM for 6 hours, 15 J/M^2 UV, 10 days (FIG. 4C)", "procedure": "A. WT HAP1 cells were treated with or without 0.5 mM acetohexamide for 6 hours, then released into compound-free media for the indicated time points and immunoblotted with an anti-MUTYH antibody. ACTIN was used as a loading control. B. WT HAP1 cells were either treated with 0.5 mM acetohexamide alone or with 10 μM of the proteasome inhibitor MG132 for 6 hours and analyzed by immunoblotting using an anti-MUTYH antibody. C. Left panel: colony formation of the WT, ΔXPA or ΔXPA-MUTYH HAP1 cells treated with or without 0.5 mM acetohexamide for 6 hours, followed by 15 J/M^2 UV irradiation and then kept in culture for 10 days. Right panel: Macroscopic colonies were stained with crystal violet and quantified. D. WT, ΔXPA or ΔXPA-MUTYH HAP1 cells were treated with 15 J/M^2 UV or left untreated, then kept in culture for the indicated recovery times and analyzed by dot blot for the presence of CPDs within genomic DNA. […] F. Survival of WT and ΔMULE HAP1 cells exposed to UV irradiation at different doses and assessed after 3 days, using CellTitre-Glo.\nas §1"}}}
{"smiles": "CC(=O)c1ccc(S(=O)(=O)NC(=O)NC2CCCCC2)cc1", "note": "[acetohexamide]", "values": [{"measurement": "UV-induced cell death of XPA^Δ/Δ patient-derived cells", "setting": "[1]", "value": "could alleviate UV-induced cell death of XPA^Δ/Δ patient-derived cells"}, {"measurement": "correction of survival of ΔXPA cells compared to wildtype cells", "setting": "[2]", "value": "> 40", "unit": "%"}, {"measurement": "survival of double knockout ΔXPA-MUTYH upon UV treatment", "setting": "[3]", "value": "did not lead to a further increase in survival upon UV treatment"}]}
